According to ChEMBL document CHEMBL4616617, “Two Decades of Successful SAR-Grounded Stories of the Novel Bacterial Topoisomerase Inhibitors (NBTIs)” (J Med Chem, 2020):

Tests used:
[1] = tested on: Staphylococcus aureus; test: Antibacterial activity against Staphylococcus aureus A798 assessed as reduction in microbial growth by CLSI based broth microdilution method; assay type: functional
[2] = tested on: Escherichia coli; test: Antibacterial activity against Escherichia coli ATCC 25922 assessed as reduction in microbial growth by CLSI based broth microdilution method; assay type: functional
[3] = Inhibition of Staphylococcus aureus N-terminal His6-tagged DNA gyrase B expressed in Escherichia coli BL21(DE3) cells using relaxed pBR322 DNA as substrate incubated for 1 hr by agarose gel electrophoresis method
[4] = biological target: Topoisomerase IV (Staphylococcus aureus, UniProt P0C1S7+P0C1U9); test: Inhibition of Staphylococcus aureus RN4220 DNA topoisomerase 4 expressed in Escherichia coli BL21(DE3) cells using supercoiled pBR322 DNA as substrate by agarose gel electrophoresis method
Topoisomerase IV, sequence (P0C1U9 whole entry): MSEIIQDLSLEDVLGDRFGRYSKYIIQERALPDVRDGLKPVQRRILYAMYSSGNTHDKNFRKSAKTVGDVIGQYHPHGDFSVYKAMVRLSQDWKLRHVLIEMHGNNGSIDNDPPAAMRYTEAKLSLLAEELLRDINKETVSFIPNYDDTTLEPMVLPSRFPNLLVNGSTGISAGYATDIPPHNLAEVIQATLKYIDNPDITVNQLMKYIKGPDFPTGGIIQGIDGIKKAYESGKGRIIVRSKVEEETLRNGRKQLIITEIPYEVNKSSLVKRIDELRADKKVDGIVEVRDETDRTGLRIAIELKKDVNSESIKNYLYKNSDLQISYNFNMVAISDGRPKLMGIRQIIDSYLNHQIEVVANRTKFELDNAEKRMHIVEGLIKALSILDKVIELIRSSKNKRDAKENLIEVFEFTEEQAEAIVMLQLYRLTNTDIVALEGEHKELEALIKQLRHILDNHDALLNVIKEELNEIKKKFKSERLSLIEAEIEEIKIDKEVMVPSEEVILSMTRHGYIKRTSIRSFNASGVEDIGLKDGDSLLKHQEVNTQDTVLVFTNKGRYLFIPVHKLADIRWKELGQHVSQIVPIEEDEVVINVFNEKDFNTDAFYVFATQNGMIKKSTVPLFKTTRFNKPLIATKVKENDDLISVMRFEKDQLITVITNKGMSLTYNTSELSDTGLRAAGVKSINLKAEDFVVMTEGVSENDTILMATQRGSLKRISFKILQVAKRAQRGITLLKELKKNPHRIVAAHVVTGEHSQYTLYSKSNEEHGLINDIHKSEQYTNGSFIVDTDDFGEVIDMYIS
Topoisomerase IV, sequence (P0C1S7 whole entry): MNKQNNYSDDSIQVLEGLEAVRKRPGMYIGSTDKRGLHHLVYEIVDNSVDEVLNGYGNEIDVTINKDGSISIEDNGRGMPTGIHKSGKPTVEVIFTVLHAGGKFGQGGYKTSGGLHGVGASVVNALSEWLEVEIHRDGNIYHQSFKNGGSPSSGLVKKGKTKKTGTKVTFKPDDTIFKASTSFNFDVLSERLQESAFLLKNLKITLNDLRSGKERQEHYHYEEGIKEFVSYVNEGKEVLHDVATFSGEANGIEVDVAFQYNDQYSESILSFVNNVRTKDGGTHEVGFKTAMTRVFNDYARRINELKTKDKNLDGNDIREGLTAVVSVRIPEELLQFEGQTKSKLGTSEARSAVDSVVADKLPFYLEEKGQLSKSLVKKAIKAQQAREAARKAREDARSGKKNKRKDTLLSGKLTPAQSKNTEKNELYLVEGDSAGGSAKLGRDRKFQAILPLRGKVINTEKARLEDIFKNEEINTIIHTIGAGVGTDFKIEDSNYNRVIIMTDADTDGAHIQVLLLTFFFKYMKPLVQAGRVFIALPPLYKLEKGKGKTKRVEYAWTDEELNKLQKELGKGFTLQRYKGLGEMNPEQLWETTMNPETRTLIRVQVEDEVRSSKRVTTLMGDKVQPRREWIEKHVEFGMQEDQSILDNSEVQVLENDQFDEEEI

[5] = Inhibition of Escherichia coli DNA topoisomerase 4 using supercoiled pBR322 DNA as substrate by agarose gel electrophoresis method
[6] = tested on: Staphylococcus aureus; test: Antibacterial activity against Staphylococcus aureus assessed as reduction in microbial growth after 18 hrs by NCCLS based method; assay type: functional
[7] = tested on: Staphylococcus aureus; test: Antibacterial activity against levofloxacin-resistant Staphylococcus aureus assessed as reduction in microbial growth by CLSI based broth microdilution method; assay type: functional
[8] = tested on: Haemophilus influenzae; test: Antibacterial activity against Haemophilus influenzae assessed as reduction in microbial growth by CLSI based broth microdilution method; assay type: functional
[9] = tested on: Escherichia coli; test: Antibacterial activity against levofloxacin-nonsusceptible Escherichia coli assessed as reduction in microbial growth by CLSI based broth microdilution method; assay type: functional
[10] = tested on: Escherichia coli; test: Antibacterial activity against Escherichia coli assessed as reduction in microbial growth by CLSI based broth microdilution method; assay type: functional
[11] = tested on: Streptococcus pneumoniae; test: Antibacterial activity against penicillin-resistant Streptococcus pneumoniae assessed as reduction in microbial growth by CLSI based broth microdilution method; assay type: functional
[12] = tested on: Streptococcus pneumoniae; test: Antibacterial activity against penicillin-susceptible Streptococcus pneumoniae assessed as reduction in microbial growth by CLSI based broth microdilution method; assay type: functional
[13] = tested on: Staphylococcus aureus; test: Antibacterial activity against methicillin-resistant Staphylococcus aureus assessed as reduction in microbial growth by CLSI based broth microdilution method; assay type: functional
[14] = tested on: Streptococcus pneumoniae; test: Antibacterial activity against penicillin-intermediate Streptococcus pneumoniae assessed as reduction in microbial growth by CLSI based broth microdilution method; assay type: functional
[15] = tested on: Neisseria gonorrhoeae; test: Antibacterial activity against Neisseria gonorrhoeae assessed as reduction in microbial growth by agar dilution method; assay type: functional
[16] = tested on: Streptococcus pneumoniae; test: Antibacterial activity against Streptococcus pneumoniae assessed as reduction in microbial growth by CLSI based broth microdilution method; assay type: functional
[17] = tested on: Escherichia coli; test: Antibacterial activity against levofloxacin-susceptible Escherichia coli assessed as reduction in microbial growth by CLSI based broth microdilution method; assay type: functional
[18] = tested on: Staphylococcus aureus; test: Antibacterial activity against Staphylococcus aureus assessed as reduction in microbial growth by CLSI based broth microdilution method; assay type: functional
[19] = tested on: Streptococcus pneumoniae; test: Antibacterial activity against levofloxacin-nonsusceptible Streptococcus pneumoniae assessed as reduction in microbial growth by CLSI based broth microdilution method; assay type: functional
[20] = tested on: Staphylococcus aureus; test: Antibacterial activity against methicillin-sensitive Staphylococcus aureus assessed as reduction in microbial growth by CLSI based broth microdilution method; assay type: functional

Question: With `CN1CC(Oc2cccc(-c3cccc(CNCC[C@@H]4CN(c5ccc6c(n5)NC(=O)CO6)C(=O)O4)c3)n2)C1` as the compound, how does the MIC [1] read?
Answer: Its MIC is 0.25 µg/mL.

Question: And the MIC [2]?
Answer: Its MIC is 0.25 µg/mL.

Question: For `COc1ccc2ncc(F)c([C@@H](O)CC[C@@H]3CCN(CCSc4cccs4)C[C@@H]3C(=O)O)c2c1`, which IC50 [3] is on record?
Answer: The IC50 was 1 µM.

Question: What about the IC50 [4] of the same compound?
Answer: Its IC50 is 0.3 µM.

Question: And the IC50 [5]?
Answer: Its IC50 is 0.2 µM.

Question: What about the MIC [6] of the same compound?
Answer: Its MIC is 0.12 to 1 µg/mL.

Question: With `O=c1ccc2ncc(=O)n3c2n1C[C@H]3CN1CCC(NCc2cc3c(cn2)OCCC3)CC1` [GEPOTIDACIN] as the compound, how does the MIC90 [7] read?
Answer: The MIC90 was 0.5 µg/mL.

Question: And the MIC90 [8]?
Answer: The MIC90 was 1 µg/mL.

Question: What about the MIC90 [9] of the same compound?
Answer: Its MIC90 is 2 µg/mL.

Question: And the MIC90 [10]?
Answer: Its MIC90 is 2 µg/mL.

Question: What about the MIC90 [11] of the same compound?
Answer: The MIC90 was 0.25 µg/mL.

Question: What about the MIC90 [12] of the same compound?
Answer: The MIC90 was 0.25 µg/mL.

Question: What about the MIC90 [13] of the same compound?
Answer: The MIC90 was 0.5 µg/mL.

Question: What about the MIC90 [14] of the same compound?
Answer: Its MIC90 is 0.25 µg/mL.

Question: And the MIC90 [15]?
Answer: The MIC90 was 0.25 µg/mL.

Question: What about the MIC90 [16] of the same compound?
Answer: The MIC90 was 0.25 µg/mL.

Question: What about the MIC90 [17] of the same compound?
Answer: The MIC90 was 2 µg/mL.

Question: And the MIC90 [18]?
Answer: The MIC90 was 0.5 µg/mL.

Question: What about the MIC90 [19] of the same compound?
Answer: The MIC90 was 0.25 µg/mL.

Question: What about the MIC90 [20] of the same compound?
Answer: Its MIC90 is 0.5 µg/mL.
